Results reported in patent publication US8618088B2, “Methods of inhibiting choroidal neovascularization” (University of Pennsylvania, priority 2002, dated 2013).

Legend:
Solubility in water = assay type: physicochemical
[1] = test system: choroidal neovascularization (CNV); assay: Matrigel subretinal injection model of choroidal neovascularization (CNV), Vessel Paint staining and fluorescence microscopy; assay type: in vivo, Sprague-Dawley rats
Description: In search of effective treatments for CNV, a simple animal model was created by injecting 2-3µl Matrigel™ to the subretinal space of adult Sprague-Dawley rats using a 33-gauge needle connected to a 10µl Hamilton microsyringe. A week or more later the animals were sacrificed by CO2 inhalation and perfused with Vessel Paint, a new visualization technique recently developed in the inventors' lab that enables screening agents, including chemical compounds and proteins, for their potential in inhibiting CNV (Wen, ARVO Abstract, March 2002). Vessel Painting comprises the use of a solution containing DiI, followed by 4% paraformaldehyde solution, and is discussed further below.
The anterior portion of the eye, including the cornea and lens, was removed, and the eyecup was imbedded in 5% agarose. […] Eye sections were examined by fluorescence microscopy for neovascularization in the Matrigel™ deposit. […] Protein leakage of the new vessels was detected by assessing color change in the Matrigel™ deposit after intravenous injection of Evan's Blue dye. […]
Adult Sprague-Dawley rats (n=22) were injected with Matrigel™ to the subretinal space. […] Tissue sections were examined by fluorescence microscopy. […]
Eyes were collected 10 days after injection and blood vessels were stained with Vessel Paint. […] CNV was examined by fluorescence microscopy and CNV index of each eye was calculated.

For `C=CC[C@@H]1/C=C(\C)C[C@H](C)C[C@H](OC)[C@H]2O[C@@](O)(C(=O)C(=O)N3CCCC[C@H]3C(=O)O[C@H](/C(C)=C/[C@@H]3CC[C@@H](O)[C@H](OC)C3)[C@H](C)[C@@H](O)CC1=O)[C@H](C)C[C@@H]2OC` [FK506], the solubility in water (Solubility in water) was “not water soluble” and the “CNV index (mean)” value ([1]; suspension in Matrigel 10 μg/μl, 1.2 μl subretinal, 10 days after injection) was “Mean = 12.67 (n = 6)”.
For `CO[C@H]1C[C@@H]2CC[C@@H](C)[C@@](O)(O2)C(=O)C(=O)N2CCCC[C@H]2C(=O)O[C@H]([C@H](C)C[C@@H]2CC[C@@H](O)[C@H](OC)C2)CC(=O)[C@H](C)/C=C(\C)[C@@H](O)[C@@H](OC)C(=O)[C@H](C)C[C@H](C)/C=C/C=C/C=C/1C` [rapamycin], the solubility in water (Solubility in water) was “not soluble in water” and the “effect on the normal vasculature of the eye” value ([1]; all experiments) was “no discernable effect”.
